{"source": "patent US9271952B2", "about": "“Compositions and methods for treating nephropathy” (Complexa, Inc., priority 2011, dated 2016)", "key": {"B6129S2/J mice": {"tested_on": "B6129S2/J mice", "test": "Cisplatin-induced renal injury in mice, posttreatment with OA-NO2", "assay_type": "in vivo", "text": "The control group also received an i.p. injection of the equivalent amount of ethanol at the same frequencies. At the end of the experiments, under isoflurane anesthesia, blood was withdrawn from the vena cava using 1 cc insulin syringe and kidneys were harvested for analysis of morphology and gene expression."}, "[1]": {"tested_on": "human proximal tubular cells (HK2)", "test": "Cisplatin-induced caspase activity in cultured human proximal tubular cells (HK2)", "assay_type": "cell-based"}, "[2]": {"conditions": "cisplatin-treated mice, OA-NO2 400 mg/kg i.p. at 6-hour intervals for 48 hours"}, "[3]": {"conditions": "cisplatin 20 mg/kg i.p. alone, mice"}}, "data": [{"compound": "9- or 10-nitro octadecenoic acid [OA-NO2]", "values": [{"measurement": "MPO plasma level (marker of neutrophil infiltration)", "setting": "B6129S2/J mice; [2]", "result": "attenuated or completely corrected"}, {"measurement": "activity of caspase (index of apoptosis)", "setting": "B6129S2/J mice; [2]", "result": "attenuated or completely corrected"}, {"measurement": "kidney expression of NADPH oxidase subunits p47phox and gp91phox", "setting": "B6129S2/J mice; [2]", "result": "attenuated or completely corrected"}, {"measurement": "kidney thiobarbituric acid-reactive substances (TBARS, index of oxidative stress)", "setting": "B6129S2/J mice; [2]", "result": "attenuated or completely corrected"}, {"measurement": "renal histological abnormalities (distortion of renal morphology, dilation of renal tubules, protein cast; pathological changes)", "setting": "B6129S2/J mice; mice given cisplatin 20 mg/kg i.p., OA-NO2 400 mg/kg i.p. at 6-hour intervals for 48 hours", "result": "markedly attenuated"}, {"measurement": "renal dysfunction as indicated by a rise in plasma BUN (functional changes)", "setting": "B6129S2/J mice; mice given cisplatin 20 mg/kg i.p., OA-NO2 400 mg/kg i.p. from 20 minutes after, at 6-hour intervals for 48 hours", "result": "markedly attenuated"}, {"measurement": "cisplatin-induced caspase activity", "setting": "[1]; HK2 cells exposed to 1.0 μM cisplatin, with OA-NO2", "result": "almost completely normalized"}]}, {"compound": "N.N.[Cl][Pt][Cl]", "note": "[cisplatin, reference compound]", "values": [{"measurement": "activity of caspase", "setting": "B6129S2/J mice; [3]", "result": "increased"}, {"measurement": "kidney TBARS", "setting": "B6129S2/J mice; [3]", "result": "increased"}, {"measurement": "kidney expression of NADPH oxidase subunits p47phox and gp91phox", "setting": "B6129S2/J mice; [3]", "result": "increased"}, {"measurement": "increase in caspase activity", "setting": "[1]; HK2 cells, exposure to 1.0 μM cisplatin", "result": 3, "unit": "fold"}]}]}
